These results are taken from patent publication US20190233836A1, “MEANS AND METHODS TO INCREASE COUMARIN PRODUCTION” (VIB VZW, priority 2016, published 2019).

Structures are written as SMILES.

The test concerns COSY. The test is described as follows: Enzymatic activity of COSY: in vitro assay combined with tobacco 4CL and CoA. Particulars: 4CL and COSY added simultaneously, CoA present; purified COSY expressed in E. coli. The class given is biochemical, Arabidopsis thaliana. The text has this: FIG. 7: Enzymatic activity of COSY. COSY and 4CL were supplemented with either 2-hydroxy-p-coumaric acid (2OHpCA), 6-hydroxycaffeic acid (6OHCA) or 6-hydroxyferulic acid (6OHFA). Umbelliferone, esculetin and scopoletin were formed, respectively, only in the presence of CoA and the enzymes 4CL and COSY. The y-axis represents the normalized abundance, error bars show the standard deviation (n=4).
Although the idea of spontaneous isomerization and lactonisation in the biosynthesis of coumarins is now widely accepted in literature (Matsumoto S. et al., 2012; Yang et al., 2015) our cosy mutant data in Example 1 clearly contradict this. When we took a closer examination at the lactonisation reaction of the coumarin core structures we investigated the possible resemblance to an esterification-type reaction mediated by BAHD acyltransferases. BAHD family members utilize activated CoA-thioesters as acyl-donors and an alcohol or amine as the acyl acceptor to form an ester or amide, respectively. We therefore hypothesized that COUMARIN SYNTHASE (COSY) could be a BAHD acyltransferase responsible for the isomerization and lactonization of ortho-hydroxy-cinnamoyl CoA thioesters into coumarins. To verify the catalytic activity of COSY in vitro, COSY was expressed in Escherichia coli and the corresponding COSY protein purified. Potential substrates were chosen based on the phenolic profiling of the cosy mutants. […] Because neither 2′-hydroxy-p-coumaroyl-CoA, 6′-caffeoyl-CoA nor 6′-hydroxyferuloyl-CoA were commercially available, the corresponding acids were synthesized and the enzymatic assays were performed in combination with a tobacco 4-COUMARATE:CoA LIGASE (4CL) to catalyze the formation of the corresponding CoA thioesters in situ (Beuerle & Pichersky, 2002). In the samples where 4CL and COSY were added simultaneously, seemingly 100% 2-hydroxy-p-coumaric acid and 6-hydroxyferulic acid were converted into the corresponding coumarins, i.e., umbelliferone and scopoletin. […]
`COc1cc(/C=C/C(=O)O)c(O)cc1O` [6-hydroxyferulic acid]: the “substrate converted into the corresponding coumarin (umbelliferone, scopoletin, esculetin)” value is reported as around 100%.
Consider `O=C(O)/C=C/c1ccc(O)cc1O` [2-hydroxy-p-coumaric acid], for which the “substrate converted into the corresponding coumarin (umbelliferone, scopoletin, esculetin)” value is listed as around 100%.
Take `O=C(O)/C=C/c1cc(O)c(O)cc1O` [6-hydroxycaffeic acid]: the “substrate converted into the corresponding coumarin (umbelliferone, scopoletin, esculetin)” value is given as “About 50%”.
